Experimental data: patent US20120129730A1, “GENERATION OF COMPOUND LIBRARIES UTILIZING MOLECULAR IMPRINTS INCLUDING A DOUBLE OR ANTI-IDIOTYPIC APPROACH” (KLAUS MOSBACH, priority 2001, published 2012)

Biological target: T1, tissue kallikrein (UniProt P00752)
T1 sequence (P00752 1-246): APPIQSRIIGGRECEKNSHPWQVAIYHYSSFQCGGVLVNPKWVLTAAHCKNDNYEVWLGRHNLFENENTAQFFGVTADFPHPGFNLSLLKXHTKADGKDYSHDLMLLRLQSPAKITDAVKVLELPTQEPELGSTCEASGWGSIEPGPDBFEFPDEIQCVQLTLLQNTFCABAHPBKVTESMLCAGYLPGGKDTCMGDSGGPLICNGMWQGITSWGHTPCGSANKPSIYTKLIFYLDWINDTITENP
Assay: Determination of inhibition constants (Ki) for tissue kallikrein
Type: biochemical
Conditions: for Ki: literature method of Burton and Lowe, read-out: Ki, inhibition constant for tissue kallikrein
Procedure: Determination of Inhibition Constants (Ki) for Tissue Kallikrein
Inhibition constants of compounds 1, 2 and 3 for tissue kallikrein are determined according to the literature method described by Burton and Lowe. ^7 The results are listed in Table 4.

| Ki | SMILES | inhibition efficacy compared with the original template (1) (tissue kallikrein inhibition, comparison in words) |
| --- | --- | --- |
| > 100 µM | N=C(N)c1ccc(Nc2nc(Cl)nc(Cl)n2)cc1 [2-(4-amidinophenylamino)-4,6-dichloro-s-triazine, reference compound] |  |
| 5.2 µM | N=C(N)c1ccc(Nc2nc(Cl)nc(NCc3ccccc3)n2)cc1 [Compound 3] | approximately the same inhibition efficacy as that of the original template (1) |
